From US20240208961A1, “EIF4E INHIBITORS AND USES THEREOF” (PIC Therapeutics, Inc., priority 2022, published 2024)

Tests used:
ZR-75-1 tumor = experiment: ZR-75-1 subQ CDX model; assay type: in vivo; conditions: female BALB/c nude mice, 10 mg/kg, PO, QD, FIG. 14
Method: Female BALB/c nude mice were inoculated with estrogen tablets (0.36 mg/pellet, 60 days to release) 48 hours before cell inoculation. The xenograft model was established by implantation of […] of ZR-75-1 tumor cell suspension (5×10^6 cells/mouse, with 50% Matrigel) subcutaneously into the right subaxillary of female BALB/c nude mice aged 6-8 weeks. When the average tumor volume reached 153.10 mm^3, the tumor-bearing mice were randomized into treatment groups. The groups were treated as follows: Group 1: vehicle, PO, QW; Group 2: Tamoxifen 10 mg/kg, PO, QD; Group 3: Compound I-11 50 mg/kg, PO, QW.
Cell culture: The ZR-75-1 (breast, ductal carcinoma) cell was purchased from (ATCC® CRL-1500™). The base medium for this cell line ATCC-formulated RPMI-1640 Medium. To make the complete growth medium, the base medium was supplemented with 10% heat inactivated FBS and 1% PS, maintained at 37° C. in an atmosphere containing 5% CO2 in air. The tumor cells were routinely subcultured at a ratio of 1:1.5 to 1:3 every 3-6 days. Cell concentration at harvest time was 5.39×10^7 cells/mL and cell viability was 94.3% before inoculation.
Tumor inoculation: BALB/c nude mice were used in this study. Each mouse was inoculated with estrogen tablets 48 hours before cell inoculation (0.3 mg/pellet, 60 days to release). […]

LoVo = experiment: Cell viability assay, adherent cell line, 5 day Alamar Blue (Example 8): LoVo; assay type: cell-based; conditions: Homo sapiens, 120 h, Colorectal Cancer Cell Viability
Method: (§1) Cell viability assays were performed on certain compounds of the disclosure, according to the following procedure.
(§2) Cell line specific media conditions used:
(§3) The procedure for adherent cell line compound screening was as follows:
(§4) • Cells were seeded in 96-well cell culture treated tissue culture plates: ZR-75-1, NIHOVCAR3, T47D, and LOVO cells 4000 cells/well; and HPAFII 3000 cell/well
(§5) Day 3: Compound Dilution and Dosing
(§6) • 5-fold serial dilution (8 point) of each compound in DMSO 0-25 mM in compound storage plates was prepared (stored at −80° C. if not to be used immediately). • Cells were rinsed with 1% FBS Media (appropriate to cell line as described above) and replaced with 87.5 μL media prior to dosing. HPAFII was screened in normal 10% FBS Media. • DMSO compound dilution series was diluted in 1% FBS media (appropriate to cell line as described above)—2 μL in 248 μL to give an 8× final concentration. • Cells were dosed 12.5 μL/well in triplicate to give final dose curved on cells 0-25 μM. • Media blank 100 μL/well×8 was set up. • All plates were incubated at 37° C.
(§7) Day 8: 5 Day Viability Assay
(§8) • Alamar Blue viability reagent was added (10 μL per well) and incubated for 3 hours at 37° C. prior to fluorescence detection (Ex560 nm/Em590 nm) on a Varioskan Lux multimode plate reader.
(§9) Results from cell viability assays are summarized in Table 23, wherein A represents IC50≤1 μM; B represents 1 μM<IC50≤8 μM; and C represents IC50>8 μM. Blank cells indicate that the compound was not tested in a particular assay.

NIHOVCAR3 = experiment: Cell viability assay, adherent cell line, 5 day Alamar Blue (Example 8): NIHOVCAR3; assay type: cell-based; conditions: Homo sapiens, OVCAR-3, 120 h, OVCAR3, Ovarian Cancer Cell
Method: as §1, §2, §3, §4, §5, §6, §7, §8, §9

MM.1S = experiment: Cell viability assay, suspension cell line, 5 day Alamar Blue (Example 8): MM.1S; assay type: cell-based; conditions: Homo sapiens, MM1.S, 120 h, Multiple Myeloma (Steroid Sensitive) Cancer Cell
Method: as §1, §2
(§10) The procedure for suspension cell line compound screening was as follows:
(§11) Day 1: Cell Seeding and Compound Dosing
as §6, with “• Cells were seeded 2×10^5 in 96-well cell culture treated tissue culture plates: 87.5 μL/well; MM.1 S, MM,1R, NCIH510A. • 5-fold” for “• 5-fold”, “to dosing. • DMSO” for “to dosing. HPAFII was screened in normal 10% FBS Media. • DMSO”
(§12) Day 6: 5 Day Viability Assay
as §8, §9

ZR-75-1 [1] = experiment: Cell viability assay, adherent cell line, 5 day Alamar Blue (Example 8): ZR-75-1; assay type: cell-based; conditions: Homo sapiens, 120 h, ZR-75-1, Breast Cancer Cell Viability
Method: as §1, §2, §3, §4, §5, §6, §7, §8, §9

T47D = experiment: Cell viability assay, adherent cell line, 5 day Alamar Blue (Example 8): T47D; assay type: cell-based; conditions: Homo sapiens, 120 h, Breast Cancer Cell Viability
Method: as §1, §2, §3, §4, §5, §6, §7, §8, §9

MM.1R = experiment: Cell viability assay, suspension cell line, 5 day Alamar Blue (Example 8): MM.1R; assay type: cell-based; conditions: 120 h, Multiple Myeloma (Steroid Resistant) Cancer Cell
Method: as §1, §2, §10, §11
as §6, with “• Cells were seeded 2×10^5 in 96-well cell culture treated tissue culture plates: 87.5 μL/well; MM.1 S, MM,1R, NCIH510A. • 5-fold” for “• 5-fold”, “to dosing. • DMSO” for “to dosing. HPAFII was screened in normal 10% FBS Media. • DMSO”
as §12, §8, §9

Human eIF4E (aa 28-217) = target: T1, Human eIF4E (aa 28-217) (Homo sapiens, UniProt P06730); experiment: 4G-eIF4E protein-based assay (TR-FRET, biotin labeled 4G2 peptide); assay type: binding
T1 construct: Human eIF4E (aa 28-217) with a C-terminal His-tag; made in house
T1 sequence (P06730 28-217): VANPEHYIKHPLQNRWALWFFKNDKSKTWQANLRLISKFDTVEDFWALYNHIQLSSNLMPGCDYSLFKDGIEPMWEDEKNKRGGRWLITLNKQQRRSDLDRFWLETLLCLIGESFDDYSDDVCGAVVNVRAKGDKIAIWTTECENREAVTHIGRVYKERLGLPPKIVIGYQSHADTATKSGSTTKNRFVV
Method: Human eIF4E ([…]) with a C-terminal His-tag was expressed in E. coli in inclusion bodies. The protein was solubilized with 8 M urea and purified under denaturing conditions using nickel-charged HisTrap HP columns (GE Healthcare). The purified protein was then refolded by diluting in 20 mM Hepes pH 7.0, 0.5 M NaCl, 1 mM DTT, […], 0.5 M arginine plus 6 M urea, and then dialyzing overnight into the same buffer without the urea. The protein was further dialyzed into 20 mM Hepes, pH 6.5, 50 mM NaCl, 1 mM EDTA, 1 mM DTT, and concentrated using Hitrap SP sepharose FF columns (GE Healthcare). The concentrated protein was dialyzed into 20 mM Hepes, pH 7.0, 0.5M NaCl, 5 mM DTT and […], and stored at -80° C. until use. Test compounds (3.43 mM stock in DMSO) were diluted 2-fold in series in DMSO (10 concentration points). Compound solutions (1.2 μL/well) were added into black 384-well polypropylene microplates (Matrix, Thermal Scientific). […] The samples were incubated at room temperature (20-23° C.) for 4 hours. Biotin labeled 4G2 peptide ([…])-NH2, 1.75 μM stock in DMSO) was diluted to 0.13 μM in Assay Buffer (without DTT) and 5 μL/well was added. The samples were incubated at room temperature for 20 min. Five microliters per well of 15 nM Eu-streptavidin (Eu-SA, Perkin Elmer) and 96 nM Allophycocyanin (APC)-anti His antibody (Columbia Biosciences) in Assay Buffer (without DTT) were then added and the samples were incubated at room temperature for 20 min. Assay signals were monitored by reading excitation at 340 nm and emission fluorescence at 615 nm and 665 nm on an Envision reader (Perkin Elmer). Normalized TR-FRET (time-resolved fluorescence resonance energy transfer) assay signal (Rn) was calculated by the formula: […] C=(Ac-Ba)/(Dc-Bd) • Where Ac is the fluorescence intensity of 1.5 nM Eu-SA in the assay buffer at 665 nm. IC50 values were calculated using xLFit program (IDBS).

HPAFII = experiment: Cell viability assay, adherent cell line, 5 day Alamar Blue (Example 8): HPAFII; assay type: cell-based; conditions: Homo sapiens, HPAF-II, 120 h, Pancreatic Cancer Cell
Method: as §1, §2, §3, §4, §5, §6, §7, §8, §9

NCIH510A = experiment: Cell viability assay, suspension cell line, 5 day Alamar Blue (Example 8): NCIH510A; assay type: cell-based; conditions: Homo sapiens, NCI-H510A, 120 h, Small Cell Lung Cancer Cell Line
Method: as §1, §2, §10, §11
as §6, with “• Cells were seeded 2×10^5 in 96-well cell culture treated tissue culture plates: 87.5 μL/well; MM.1 S, MM,1R, NCIH510A. • 5-fold” for “• 5-fold”, “to dosing. • DMSO” for “to dosing. HPAFII was screened in normal 10% FBS Media. • DMSO”
as §12, §8, §9

MM.1S cells = experiment: 5 day viability assay in MM.1S cells, I-11 and dexamethasone (Example 7); assay type: cell-based; conditions: Homo sapiens, MM1.S, 120 h; MM.1S cells (steroid sensitive), 5 days, Alamar Blue; read-out: IC50 (μM), Viability Assessment (5 Days) in MM.1S Cells
Method: (§13) Compound I-11 was studied in the context of dexamethasone combinations, which is used clinically in early Multiple Myeloma prior to the emergence of steroid resistance and is a common backbone therapy. The MM.1S cell line is a steroid sensitive line, and the MM.1R line is the corresponding cell line which has been driven to steroid resistance. The procedure for these studies was as follows:
as §11
(§14) • Cells were seeded 2×10^5 in 96-well cell culture treated tissue culture plates: 87.5 μL/well; MM.1 S and MM.1R • A 5-fold serial dilution of each compound in DMSO (0-25 mM) was prepared in compound storage plates (stored at −80° C. if not to be used immediately). An 8-point curve was used for compound I-11, and a 6-point curve was used for dexamethasone (0-25 mM). • Cells were rinsed with 1% FBS Media and replaced with 87.5 μL media prior to dosing. • DMSO compound dilution series was diluted in 1% FBS media—2 μL compound in 123 μL media to give a 16× final concentration. Dosing across the plate columns 1-12 (compound I-11 0-400 μM), 6.25 μL 16× in media/well. Dosing down plate rows (columns 1-6 dexamethasone 0-400 μM), 6.25 μL 16× compound in media per well. • Cells were dosed with 12.5 μL for both compounds, with 2 replicates of dosing matrix per 96-well plate. Final volume cells and compound was 100 μL/well. • Media blank 100 μL/well×8 was set up. • All plates were incubated at 37° C.
as §12, §8

MM.1R cells = experiment: 5 day viability assay in MM.1R cells, I-11 and dexamethasone (Example 7); assay type: cell-based; conditions: 120 h; MM.1R cells (steroid resistant), 5 days, Alamar Blue; read-out: IC50 (μM), Viability Assessment (5 Days) in MM.1R Cells
Method: as §13, §11, §14, §12, §8

ZR-75-1 [2] = experiment: ZR-75-1 compound screening cell viability, Alamar Blue (Example 6); assay type: cell-based; conditions: Homo sapiens, 96 h, ZR-75-1 cells, Media 1% FBS, read-out: ZR-75-1 Cell Viability, 4 Days: IC50

Row | SMILES | IC50 (LoVo) | IC50 (MM.1S) | IC50 (T47D) | IC50 (MM.1R) | IC50 (Human eIF4E (aa 28-217)) | IC50 (MM.1S cells) | IC50 (MM.1R cells) | tumor size growth (ZR-75-1 tumor) | IC50 (NIHOVCAR3) | IC50 (ZR-75-1 [1]) | IC50 (HPAFII) | IC50 (NCIH510A) | IC50 (ZR-75-1 [2])
1 | CC/C(=C(\c1ccccc1)c1ccc(OCCN(C)C)cc1)c1ccccc1 [Tamoxifen, reference compound] |  |  |  |  |  |  |  | reduced tumor size growth |  |  |  |  | 
2 | C[C@@H]1C[C@H]2[C@@H]3CCC4=CC(=O)C=C[C@]4(C)[C@@]3(F)[C@@H](O)C[C@]2(C)[C@@]1(O)C(=O)CO [dexamethasone, reference compound] |  |  |  |  |  | 0.0133 µM | 30.9 µM |  |  |  |  |  | 
3 | C=C(C)c1nc(Nc2ncc(-c3cccs3)cc2C(=O)O)sc1CC(C)C [Compound I-13] | 1000 to 8000 nM | 1000 to 8000 nM | 1000 to 8000 nM | 1000 to 8000 nM | 500 to 1000 nM |  |  |  | 1000 to 8000 nM | 1000 to 8000 nM | 1000 to 8000 nM | 1000 to 8000 nM | 1000 to 8000 nM
4 | Cc1ccc(-c2cnc(Nc3nc(C4CCC(F)(F)CC4)c(CC(C)C)s3)c(C(=O)O)c2)s1 [Compound I-30] | 1000 to 8000 nM | 1000 to 8000 nM | 1000 to 8000 nM | 1000 to 8000 nM | 500 to 1000 nM |  |  |  | 1000 to 8000 nM | 1000 to 8000 nM | > 8000 nM | 1000 to 8000 nM | 

Second part, led by results:

Row | IC50 (LoVo) | IC50 (MM.1S) | IC50 (T47D) | IC50 (MM.1R) | IC50 (Human eIF4E (aa 28-217)) | IC50 (MM.1S cells) | IC50 (MM.1R cells) | SMILES | tumor size growth (ZR-75-1 tumor) | IC50 (NIHOVCAR3) | IC50 (ZR-75-1 [1]) | IC50 (HPAFII) | IC50 (NCIH510A) | IC50 (ZR-75-1 [2])
5 | 1000 to 8000 nM | > 8000 nM | 1000 to 8000 nM | > 8000 nM | ≤ 500 nM |  |  | Cc1ccc(-c2cnc(Nc3nc(C(C)(C)C)c(CC(C)C)s3)c(C(=O)O)c2)s1 [Compound I-24] |  | 1000 to 8000 nM | 1000 to 8000 nM | > 8000 nM | 1000 to 8000 nM | 
6 | ≤ 1000 nM | ≤ 1000 nM | ≤ 1000 nM | 1000 to 8000 nM | 500 to 1000 nM |  |  | CC(C)Cc1sc(Nc2ncc(-c3cccs3)cc2C(=O)O)nc1C1=CCC(F)(F)CC1 [Compound I-4] |  | ≤ 1000 nM | ≤ 1000 nM | ≤ 1000 nM | ≤ 1000 nM | < 1000 nM
7 | ≤ 1000 nM | ≤ 1000 nM | ≤ 1000 nM | ≤ 1000 nM | 500 to 1000 nM |  |  | CC(C)Cc1sc(Nc2ncc(-c3cccs3)cc2C(=O)O)nc1C1CCC1 [Compound I-28] |  | ≤ 1000 nM | ≤ 1000 nM | ≤ 1000 nM | ≤ 1000 nM | 
